# Laboratory results published in paper PMC8453901, “GLPG1205, a GPR84 Modulator: Safety, Pharmacokinetics, and Pharmacodynamics in Healthy Subjects” (Clinical Pharmacology in Drug Development, 2021).
# “Also recorded” adds a separate entry of the source. Like-named read-outs stand apart in the source and are kept apart here.
# Experiment: Study 1 MAD part: plasma and urine pharmacokinetics, once daily for 14 days
# Format: in vivo, human
# Details: for AUC / Cmax / Tmax / half-life: male, human, plasma, oral; for AUC: dosing interval 24 hours; for Tmax: median (minimum-maximum)
# Experimental: GLPG1205 or matching placebo were administered as an oral nanosuspension in the morning in a fed condition as an outpatient. For both the single ascending doses (SADs) and multiple ascending doses (MADs) parts of the study, subjects attended a screening visit (21 to 2 days before first study drug administration) and a follow‐up visit (7 to 10 days after the last dose).
# In the MAD part of study 1, 24 healthy male subjects in 3 cohorts (C, D, and E; n = 8 each) each received GLPG1205 or matching placebo once daily for 14 days. Cohorts C, D, and E received GLPG1205 50 mg once daily or matching placebo, GLPG1205 100 mg once daily or matching placebo, and GLPG1205 200 mg once daily or matching placebo, respectively. Within a cohort, subjects were randomized to receive GLPG1205 or matching placebo in a 3:1 ratio. An interval of at least 6 days was enforced between cohorts. Subjects were kept in‐house from the evening of day –1 until ≈26 hours after first dosing (morning of day 2), and from the evening of day 13 to the morning of day 15. Administration of the study drug was performed daily at the clinical pharmacology unit.
# In the SAD part of study 1, blood samples (2 mL) for PK assessments were obtained before dosing and at multiple time points on the day of study drug administration (before dosing and 0.5, 1, 2, 4, 6, 8, and 12 hours after dosing) and at 24, 48, and 72 hours after dosing. The predose sample for the next dose level was also used in PK analysis (168 hours after dosing). […] In the MAD part of study 1, blood samples (2 mL) were obtained on days 1, 2, 4, 5, 6, 8, 10, 12, 14, 15, 16, 17, and 18 and at follow‐up (approximately 7 to 10 days after the last dose). These PK blood samples were taken after dosing (1, 2, 4, 6, 8, 12, and 24 hours) on day 1; before dosing on days 4, 6, 8, and 10; and after dosing (1, 2, 4, 6, 8, 12, 24, 72, and 96 hours) on day 14. The following additional PK blood samples were also taken: cohort C, before dosing on day 5; and cohorts D and E, before dosing on day 12. Urine samples were obtained from fractions collected over 6‐ or 12‐hour periods after dosing on days –1, 1, 2, 13, 14, and 15; samples obtained on days –1 and 13 were for cytochrome P450 (CYP) induction analysis only. In study 2, blood samples (2 mL) were obtained on days 1, 2, 5, 7, 10, 14, 15, 17, and 20 and at follow‐up (approximately 21 days after end of study medication administration). Blood samples were taken before dosing and at 1, 2, 4, 6, 8, 12, and 24 hours after drug administration on days 1 and 14 and before dosing on other sampling days.
# Blood samples were immediately chilled (ice bath), and the plasma was separated by centrifugation (4°C for 10 minutes at ≈1500 g) within 30 minutes of blood collection.
# GLPG1205 plasma concentrations were determined using a validated liquid chromatography with tandem mass spectrometry method. After a protein precipitation with methanol, a chromatographic separation was performed on a Kinetex C18 column (50×3.0 mm, 2.6 μm; Phenomenex, Torrance, California) set at 40°C by using a Nexera high‐performance liquid chromatography (HPLC) system (Shimadzu, Kyoto, Japan) or an Infinity HPLC system (Agilent Technologies, Diegem, Belgium) in isocratic elution mode. A QTRAP6500, QTRAP4000, or API4000 mass spectrometer (AB Sciex, Nieuwerkerk aan den Ijssel, The Netherlands) equipped with a TurboIonSpray probe operated in the multiple reaction monitoring in positive mode was used for quantification. The calibration curves in plasma were linear over the range of 1 to 1000 ng/mL with 1/x^2 as weighting factor. The limit of quantification of the assay in the plasma samples was set at 1 ng/mL.
# GLPG1205 concentrations in urine fractions were determined by using a qualified liquid chromatography with tandem mass spectrometry method derived from the plasma method. […]
# [1] = 50 mg, 50 mg once daily, day 1, mean (CV%)
# [2] = 50 mg, 50 mg once daily, day 14, mean (CV%)
# [3] = 100 mg, 100 mg once daily, day 1, mean (CV%)
# [4] = 100 mg, 100 mg once daily, day 14, mean (CV%)
# [5] = 200 mg, 200 mg once daily, day 1, mean (CV%)
smiles,measurement,setting,value
"O=c1nc(OC[C@@H]2COCCO2)cc2n1CCc1cc(C#CC3CC3)ccc1-2 [GLPG1205, 9‐cyclopropylethynyl‐2‐((S)‐1‐[1,4]dioxan‐2‐ylmethoxy)‐6,7‐dihydropyrimido[6,1‐a]isoquinolin‐4‐one]","Ae(Τ), amount excreted in urine over 24 hours","50 mg once daily, day 1, mean (CV%)",0.0785 (22.9) % dose
same,"Ae(Τ), amount excreted in urine over 24 hours","50 mg once daily, day 14, mean (CV%), N = 5",0.428 (22.0)^N = 5 % dose
same,"Ae(Τ), amount excreted in urine over 24 hours","100 mg once daily, day 1, mean (CV%), N = 4",0.0746 (30.1)^N = 4 % dose
same,"Ae(Τ), amount excreted in urine over 24 hours","100 mg once daily, day 14, mean (CV%)",0.480 (27.2) % dose
same,"Ae(Τ), amount excreted in urine over 24 hours","200 mg once daily, day 1, mean (CV%)",0.123 (27.0) % dose
same,dose-proportionality of steady-state exposure (Cmax and AUCΤ),50 to 100 mg once daily,increased in proportion with the dose; also recorded: increased proportionally with the dose
same,excretion of unchanged GLPG1205 in urine over 24 hours,at steady state on day 14,< 0.48 % of the administered dose
same,AUC,[1],7580 ng·h/mL
same,Cmax,[1],469 ng/mL
same,Tmax,"50 mg, 50 mg once daily, day 1",3 h
same,AUC,[2],41300 ng·h/mL
same,Cmax,[2],2050 ng/mL
same,half-life,"50 mg, 50 mg once daily, day 14, mean (CV%), read-out: t1/2,λz (converted)",76.7 h
same,Tmax,"50 mg, 50 mg once daily, day 14",4 h
same,AUC,[3],14400 ng·h/mL
same,Cmax,[3],875 ng/mL
same,Tmax,"100 mg, 100 mg once daily, day 1",4 h
same,AUC,[4],82700 ng·h/mL
same,Cmax,[4],3910 ng/mL
same,half-life,"100 mg, 100 mg once daily, day 14, mean (CV%), read-out: t1/2,λz (converted)",88.6 h
same,Tmax,"100 mg, 100 mg once daily, day 14",4 h
same,AUC,[5],42900 ng·h/mL
same,Cmax,[5],2450 ng/mL
same,Tmax,"200 mg, 200 mg once daily, day 1",3 h
same,Cmax,"200/150 mg once daily (150 mg as of day 8), day 14, n = 3, mean (CV%)",8900 ng/mL
same,AUC,"200/150 mg once daily, day 14, n = 3, mean (CV%)",195000 ng·h/mL
same,half-life,"200/150 mg once daily, day 14, n = 3, mean (CV%), read-out: t1/2,λz (converted)",141 h
same,Tmax,"200/150 mg once daily, day 14, n = 3",12 h
same,half-life,"once-daily dosing for 14 days, read-out: t1/2,λz range",76.7 to 141 h
same,time to steady state in plasma concentrations,"once-daily dosing for 14 days, irrespective of dose (by day 10)",9 dosing days
